Experimental data from publication PMC9769921, “Characteristics of the GlnH and GlnX Signal Transduction Proteins Controlling PknG-Mediated Phosphorylation of OdhI and 2-Oxoglutarate Dehydrogenase Activity in Corynebacterium glutamicum” (Microbiology Spectrum, 2022).
Several values for one entry are separate records, joined by “and”; a condition that tells them apart may be missing. Identical values can stand only once.

Legend:
His10-GlnHΔSP (GlnH) = His10-GlnHΔSP (GlnH) (Corynebacterium glutamicum, UniProt Q8NM30); experiment: Isothermal titration calorimetry with His10-GlnHΔSP; format: binding; details: for binding to His10-GlnHΔSP / mean observed enthalpy change: ITC, 40 mM HEPES pH 7, 100 mM KCl; for binding to His10-GlnHΔSP: 10 mM MgCl2; for mean observed enthalpy change: 10 mM MgCl2, 25°C
Excerpt: Based on the similarity to the glutamine-binding protein GlnH of E. coli, which is part of the ABC transporter GlnHPQ ([28], [29]), the protein encoded by cg3045 in the C. glutamicum genome was initially annotated as a putative glutamine binding protein ([20]). […] To characterize the ligand binding properties of GlnH, a soluble protein version lacking the N-terminal signal peptide and the lipobox motif was overproduced in E. coli BL21(DE3) using the expression plasmid pET-TEV-glnHΔSP and purified by Ni^2+-chelate affinity chromatography. The His-tagged protein was used for interaction studies with different potential ligands using isothermal titration calorimetry (ITC). Based on the annotation, L-glutamine was first tested as a ligand, but no binding to His10-GlnHΔSP was observed under the conditions used (40 mM HEPES, pH 7, 100 mM KCl, 10 mM MgCl2). In contrast, L-aspartate and L-glutamate served as ligands for His10-GlnHΔSP, although with moderate affinity. […] In both cases, binding was exothermic with mean observed enthalpy changes of −18.5 ± 4.3 kJ/mol for L-aspartate and −17.5 ± 5.0 kJ/mol for L-glutamate. […] In Fig. 6, representative ITC experiments are shown for the five ligands tested.
Purified His10-GlnHΔSP was dialyzed overnight against a 500-fold excess of dialysis buffer (40 mM HEPES, 100 mM KCl, 10 mM MgCl2, pH 7.0). Stock solutions of the potential ligands L-aspartic acid, L-glutamic acid, L-asparagine, L-glutamine, and 2-oxoglutarate were prepared in dialysis buffer, and the pH was adjusted to pH 7.0 using KOH. ITC measurements were performed with a MicroCal PEAQ-ITC instrument (Malvern Panalytical, Malvern, Great Britain) operated at 25°C. Protein concentrations between 30 μM and 75 μM were used together with ligand concentrations of 7.5 mM to 50 mM. Prior to being filled with 300 μL protein solution, the measuring cell was rinsed with dialysis buffer, while the syringe was filled with 75 μL ligand solution. An ITC run was started with an initial injection of 0.4 μL followed by 12 injections of 3 μL each. In addition, control experiments with ligand solution titrated into the dialysis buffer were performed. The data were analyzed using MicroCal ITC analysis software (Malvern Panalytical), and a fixed 1:1 binding stoichiometry was assumed to determine the binding affinity.

C. glutamicum = system: C. glutamicum; set-up: method as in PMID 15870446; details: cited from earlier work
His10-GlnHcore (GlnH) = His10-GlnHcore (GlnH) (Corynebacterium glutamicum, UniProt Q8NM30); experiment: Intrinsic tryptophan fluorescence ligand binding, parental His10-GlnHcore
M. tuberculosis GlnH = target: M. tuberculosis GlnH; set-up: method as in PMID 30065086; details: cited from earlier work
GlnH of C. glutamicum [1] = system: GlnH of C. glutamicum; set-up: method as in PMID 30065086; details: cited from earlier work
GlnH of C. glutamicum [2] = target: GlnH of C. glutamicum; set-up: method as in PMID 30065086; details: change in intrinsic tryptophan fluorescence; cited from earlier work
[3] = target: T1, OdhA subunit of the 2-oxoglutarate dehydrogenase complex (ODH) (Corynebacterium glutamicum (endogenous in C. glutamicum ΔodhI)) (UniProt Q8NRC3)
T1 sequence: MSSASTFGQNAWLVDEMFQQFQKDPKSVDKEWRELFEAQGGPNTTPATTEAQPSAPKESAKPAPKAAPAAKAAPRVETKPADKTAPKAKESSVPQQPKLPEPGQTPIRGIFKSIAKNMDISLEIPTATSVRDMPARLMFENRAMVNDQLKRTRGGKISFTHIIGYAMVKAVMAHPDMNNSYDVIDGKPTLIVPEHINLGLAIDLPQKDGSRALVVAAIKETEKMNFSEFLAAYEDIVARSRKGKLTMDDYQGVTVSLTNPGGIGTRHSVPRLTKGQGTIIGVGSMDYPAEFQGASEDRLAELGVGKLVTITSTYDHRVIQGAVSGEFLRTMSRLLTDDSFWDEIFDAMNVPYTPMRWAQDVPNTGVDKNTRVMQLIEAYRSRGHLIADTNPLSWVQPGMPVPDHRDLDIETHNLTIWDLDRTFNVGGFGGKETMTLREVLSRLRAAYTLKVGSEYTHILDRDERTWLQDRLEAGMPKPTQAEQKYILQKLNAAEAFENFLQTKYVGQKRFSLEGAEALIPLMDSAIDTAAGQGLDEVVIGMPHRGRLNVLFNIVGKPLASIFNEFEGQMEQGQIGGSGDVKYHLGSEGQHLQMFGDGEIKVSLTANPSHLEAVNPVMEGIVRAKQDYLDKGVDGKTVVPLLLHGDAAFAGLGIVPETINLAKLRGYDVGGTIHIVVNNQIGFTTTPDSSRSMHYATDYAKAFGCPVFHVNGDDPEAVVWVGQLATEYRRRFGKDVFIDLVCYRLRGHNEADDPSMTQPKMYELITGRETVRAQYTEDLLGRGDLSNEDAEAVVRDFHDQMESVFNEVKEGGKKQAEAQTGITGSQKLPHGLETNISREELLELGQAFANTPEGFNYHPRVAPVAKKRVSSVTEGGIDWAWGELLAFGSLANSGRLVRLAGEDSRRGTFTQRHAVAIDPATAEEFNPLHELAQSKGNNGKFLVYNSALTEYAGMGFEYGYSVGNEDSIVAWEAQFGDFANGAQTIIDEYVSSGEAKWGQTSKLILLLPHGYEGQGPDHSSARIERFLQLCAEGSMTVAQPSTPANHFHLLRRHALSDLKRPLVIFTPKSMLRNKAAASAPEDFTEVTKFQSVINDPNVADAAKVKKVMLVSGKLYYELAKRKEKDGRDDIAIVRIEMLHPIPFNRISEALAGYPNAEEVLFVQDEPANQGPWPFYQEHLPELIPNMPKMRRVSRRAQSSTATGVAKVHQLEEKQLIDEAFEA

[4] = target: 2-oxoglutarate dehydrogenase complex (ODH) (Corynebacterium glutamicum, UniProt Q8NRC3); experiment: ODH activity of cell-free extracts of C. glutamicum ΔodhI with added OdhI variants (photometric, NADH formation); details: 100% = 135 ± 12 nmol min^−1 (mg protein)^−1 without added OdhI
Sequence of 2-oxoglutarate dehydrogenase complex (ODH) (Q8NTE1 whole entry, one chain of several): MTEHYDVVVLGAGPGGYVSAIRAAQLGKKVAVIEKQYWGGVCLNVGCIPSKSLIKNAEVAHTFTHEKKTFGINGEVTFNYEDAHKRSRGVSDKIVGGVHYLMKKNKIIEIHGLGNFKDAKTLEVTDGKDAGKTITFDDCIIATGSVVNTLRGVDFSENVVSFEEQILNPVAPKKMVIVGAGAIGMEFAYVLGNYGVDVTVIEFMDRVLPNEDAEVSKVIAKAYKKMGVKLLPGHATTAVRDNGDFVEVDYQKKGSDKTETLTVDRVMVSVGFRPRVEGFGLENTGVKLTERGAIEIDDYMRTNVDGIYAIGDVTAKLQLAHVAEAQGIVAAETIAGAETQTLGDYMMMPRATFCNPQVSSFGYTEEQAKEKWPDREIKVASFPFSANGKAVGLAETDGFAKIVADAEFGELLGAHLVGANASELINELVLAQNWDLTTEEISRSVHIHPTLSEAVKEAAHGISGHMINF
Sequence of 2-oxoglutarate dehydrogenase complex (ODH) (Q8NNJ2 whole entry, one chain of several, further chain): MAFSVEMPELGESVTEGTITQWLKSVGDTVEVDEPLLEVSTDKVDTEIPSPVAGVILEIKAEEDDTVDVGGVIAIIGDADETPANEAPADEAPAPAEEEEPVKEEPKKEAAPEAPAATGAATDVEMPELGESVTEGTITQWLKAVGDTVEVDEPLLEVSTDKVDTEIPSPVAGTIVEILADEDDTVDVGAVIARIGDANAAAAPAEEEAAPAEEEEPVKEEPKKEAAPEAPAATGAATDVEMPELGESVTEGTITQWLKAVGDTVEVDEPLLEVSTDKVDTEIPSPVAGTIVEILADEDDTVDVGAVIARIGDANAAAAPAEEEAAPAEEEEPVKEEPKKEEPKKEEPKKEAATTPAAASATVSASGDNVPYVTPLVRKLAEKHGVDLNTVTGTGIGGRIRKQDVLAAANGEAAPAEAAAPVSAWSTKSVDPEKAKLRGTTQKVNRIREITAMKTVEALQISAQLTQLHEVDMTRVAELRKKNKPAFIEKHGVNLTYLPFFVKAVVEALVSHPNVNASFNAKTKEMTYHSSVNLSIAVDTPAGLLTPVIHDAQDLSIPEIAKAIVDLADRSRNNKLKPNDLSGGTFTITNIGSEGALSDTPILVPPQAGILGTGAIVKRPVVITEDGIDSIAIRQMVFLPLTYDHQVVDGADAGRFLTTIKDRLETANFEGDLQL
Protocol: Determination of the ODH activity in the presence of different OdhI variants was carried out using a photometric assay following NADH formation as described previously ([6], [8]).

Sequence of His10-GlnHΔSP (GlnH) (Q8NM30 entry or part of it, stated change not applied): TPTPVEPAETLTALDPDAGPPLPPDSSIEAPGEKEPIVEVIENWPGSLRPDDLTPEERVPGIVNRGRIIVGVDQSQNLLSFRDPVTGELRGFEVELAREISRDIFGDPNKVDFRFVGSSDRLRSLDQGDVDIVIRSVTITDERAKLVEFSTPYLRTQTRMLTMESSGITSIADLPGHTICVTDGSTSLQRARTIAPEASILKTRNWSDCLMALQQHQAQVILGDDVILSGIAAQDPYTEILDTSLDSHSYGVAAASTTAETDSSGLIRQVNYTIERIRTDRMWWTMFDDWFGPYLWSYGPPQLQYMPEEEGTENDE
Sequence of His10-GlnHcore (GlnH) (Q8NM30 entry or part of it): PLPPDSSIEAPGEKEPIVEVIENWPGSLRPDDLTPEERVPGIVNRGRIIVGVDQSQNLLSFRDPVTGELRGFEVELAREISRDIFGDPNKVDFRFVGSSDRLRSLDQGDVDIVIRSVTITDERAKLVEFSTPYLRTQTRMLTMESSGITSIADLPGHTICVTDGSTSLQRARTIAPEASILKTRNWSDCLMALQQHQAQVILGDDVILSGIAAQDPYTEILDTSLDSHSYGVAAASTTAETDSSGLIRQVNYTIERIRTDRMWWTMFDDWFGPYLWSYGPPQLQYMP

O=C(O)CCC(=O)C(=O)O [2-oxoglutarate]
binding to His10-GlnHΔSP (His10-GlnHΔSP (GlnH)): no interaction

CC[C@@H](CO)NCCN[C@@H](CC)CO [Ethambutol]
effect on glutamate secretion (C. glutamicum): trigger glutamate secretion

NC(=O)C[C@H](N)C(=O)O [L-asparagine]
binding to His10-GlnHΔSP (His10-GlnHΔSP (GlnH)): no interaction

N[C@@H](CC(=O)O)C(=O)O [L-aspartate]
Kd (His10-GlnHcore (GlnH)): 242 µM
Kd (M. tuberculosis GlnH): 4.8 ± 0.6 µM
effect on thermal stability of GlnH (GlnH of C. glutamicum [1]): increased the thermal stability
Kd (GlnH of C. glutamicum [2]): 0.55 ± 0.09 mM
Kd (His10-GlnHΔSP (GlnH)): 264 ± 14.6 µM
mean observed enthalpy change (His10-GlnHΔSP (GlnH)): -18.5 ± 4.3 kJ/mol

N[C@@H](CCC(=O)O)C(=O)O [L-glutamate]
Kd (His10-GlnHcore (GlnH)): 1460 µM
Kd (M. tuberculosis GlnH): 15.2 ± 5.7 µM
effect on thermal stability of GlnH (GlnH of C. glutamicum [1]): increased the thermal stability
Kd (GlnH of C. glutamicum [2]): 2.06 mM
Kd (His10-GlnHΔSP (GlnH)): 1260 µM
mean observed enthalpy change (His10-GlnHΔSP (GlnH)): -17.5 ± 5.0 kJ/mol

NC(=O)CC[C@H](N)C(=O)O [L-glutamine]
binding to His10-GlnHΔSP (His10-GlnHΔSP (GlnH)): no binding

B1: OdhI (natural protein)
chain: MSDNNGTPEPQVETTSVFRADLLKEMESSTGTAPASTGAENLPAGSALLVVKRGPNAGARFLLDQPTTTAGRHPESDIFLDDVTVSRRHAEFRINEGEFEVVDVGSLNGTYVNREPRNAQVMQTGDEIQIGKFRLVFLAGPAE
residual ODH activity of cell-free extracts of C. glutamicum ΔodhI after adding 0.38 nM or 1.9 nM purified OdhI (activity without OdhI = 100%) [3]: 3%

B2: OdhI: 15-kDa forkhead-associated (FHA) domain-containing protein of C. glutamicum that inhibits ODH; purified, untagged (protein)
chain: MSDNNGTPEPQVETTSVFRADLLKEMESSTGTAPASTGAENLPAGSALLVVKRGPNAGARFLLDQPTTTAGRHPESDIFLDDVTVSRRHAEFRINEGEFEVVDVGSLNGTYVNREPRNAQVMQTGDEIQIGKFRLVFLAGPAE
modifications: left off: His10, N-terminal, cleaved
relative specific ODH activity (residual activity) ([4]; 0.38 nM protein added): 18.6%
relative specific ODH activity (residual activity) ([4]; 1.9 nM protein added): 3% and 3.1%

B3: OdhI-R87A (natural protein)
chain: MSDNNGTPEPQVETTSVFRADLLKEMESSTGTAPASTGAENLPAGSALLVVKRGPNAGARFLLDQPTTTAGRHPESDIFLDDVTVSARHAEFRINEGEFEVVDVGSLNGTYVNREPRNAQVMQTGDEIQIGKFRLVFLAGPAE
relative specific ODH activity (residual activity) ([4]; 0.38 nM protein added): 68.9%
residual ODH activity of cell-free extracts of C. glutamicum ΔodhI after adding 0.38 nM or 1.9 nM purified OdhI-R87A (activity without OdhI = 100%) [3]: > 50%

B4: OdhI-R87P (natural protein)
chain: MSDNNGTPEPQVETTSVFRADLLKEMESSTGTAPASTGAENLPAGSALLVVKRGPNAGARFLLDQPTTTAGRHPESDIFLDDVTVSPRHAEFRINEGEFEVVDVGSLNGTYVNREPRNAQVMQTGDEIQIGKFRLVFLAGPAE
relative specific ODH activity (residual activity) ([4]; 0.38 nM protein added): 83.1%
residual ODH activity of cell-free extracts of C. glutamicum ΔodhI after adding 0.38 nM or 1.9 nM purified OdhI-R87P (activity without OdhI = 100%) [3]: > 50%
